The source of these data is publication PMC6128263 (Biochemistry, 2018).

Broadly, the Km is the concentration of substrate that gives half-maximal velocity. One may read the inhibition as the drop in the measured response relative to a control, in per cent. As a reminder, the kinact/KI is the maximal inactivation rate divided by the concentration that gives half of it. As a reminder, the EC50 is the concentration at which the effect is half-maximal. Low values mean higher potency in that assay, high ones lower potency in that assay.

The subject of data set [1] is OC[C@H]1O[C@H](O[C@H]2O[C@H](CO)[C@@H](O)[C@H](O)[C@H]2O)[C@H](O)[C@@H](O)[C@@H]1O. The data set can be described thus: purified protein, by the assay type. Conditions: other: Pks13-TE, acyl transfer from 4MH to trehalose; pH 7.5; 37.0 °C.
A further data set relates to Mtb strain H37Rv. Conditions: cited from earlier work.
Data set [2] deals with T1, Mtb Pks13-TE (Mycobacterium tuberculosis, UniProt I6X8D2). The data set is described as follows: Initial inhibition screen, Pks13-TE activity assay. The class given is biochemical.
Data set [3] concerns the target T1, Mtb Pks13-TE. The data set can be described thus: Pks13-TE reversible covalent inhibition and influence of trehalose. The class given is biochemical.
Data set [4] addresses T2, Mtb Rv3802 (Mycobacterium tuberculosis, UniProt O53581). The class given is biochemical. Conditions: 100 μM inhibitor, no preincubation time.
Data set [5] concerns the target T3, Mtb Ag85C (Mycobacterium tuberculosis, UniProt P9WQN9). The data set can be described thus: Ag85C kinact/KI determination. The format is biochemical.
In another data set the test system is Rv3802. To be noted: THL to Rv3802, cited from earlier work.
Data set [6] concerns the target T2, Mtb Rv3802. The data set can be described thus: biochemical. The class given is biochemical.
In data set [7] the target is T3, Mtb Ag85C. The data set can be described thus: Initial inhibition screen, Ag85C activity assay. The format is biochemical. To be noted: for inhibition level of Ag85C: 100 μM inhibitor, 0 min preincubation, compared to the uninhibited control.
Setting [8] is: read-out: increase in inhibition level of Pks13-TE from 0 to 3 h.
Setting [9] is: read-out: inhibition level of Pks13-TE at 4 h (decreased to).
[10] abbreviates: 20 nM Rv3802, linear rates from 2 to 6 min, no preincubation.

Like-named read-outs stand apart in the source and are kept apart here.

T2 sequence (O53581 whole entry): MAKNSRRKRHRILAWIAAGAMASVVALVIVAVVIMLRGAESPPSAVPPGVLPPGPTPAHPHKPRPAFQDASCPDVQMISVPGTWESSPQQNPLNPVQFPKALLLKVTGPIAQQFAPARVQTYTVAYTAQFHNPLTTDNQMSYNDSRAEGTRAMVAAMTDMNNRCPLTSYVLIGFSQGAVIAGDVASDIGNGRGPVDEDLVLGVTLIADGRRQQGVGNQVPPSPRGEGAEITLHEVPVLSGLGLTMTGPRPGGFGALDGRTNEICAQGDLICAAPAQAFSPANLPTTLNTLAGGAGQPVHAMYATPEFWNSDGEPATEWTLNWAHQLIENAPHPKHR
T1 sequence (I6X8D2 1451-1733 limits assumed): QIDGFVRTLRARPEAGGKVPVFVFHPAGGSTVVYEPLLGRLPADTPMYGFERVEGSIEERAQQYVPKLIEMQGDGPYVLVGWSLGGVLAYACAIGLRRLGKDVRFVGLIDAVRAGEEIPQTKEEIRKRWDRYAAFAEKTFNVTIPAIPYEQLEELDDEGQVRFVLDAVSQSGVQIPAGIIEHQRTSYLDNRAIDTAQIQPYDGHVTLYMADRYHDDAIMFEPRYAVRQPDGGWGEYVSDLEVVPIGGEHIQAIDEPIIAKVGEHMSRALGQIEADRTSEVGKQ
T3 sequence (P9WQN9 46-340): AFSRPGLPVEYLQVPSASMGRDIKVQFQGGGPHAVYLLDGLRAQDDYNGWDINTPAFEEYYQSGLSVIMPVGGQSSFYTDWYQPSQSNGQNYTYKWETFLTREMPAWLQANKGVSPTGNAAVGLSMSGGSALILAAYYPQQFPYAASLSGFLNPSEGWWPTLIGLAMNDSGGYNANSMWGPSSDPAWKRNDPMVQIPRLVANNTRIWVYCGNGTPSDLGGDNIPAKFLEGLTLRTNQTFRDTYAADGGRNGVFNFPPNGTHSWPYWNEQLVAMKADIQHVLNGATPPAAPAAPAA

Consider “Mtb Pks13-TE (Mycobacterium tuberculosis H37Rv)”, for which the Km in data set [1] stood at 56.6 ± 7.9 mM.
As to `CCCCCCCCCCC[C@@H](C[C@@H]1OC(=O)[C@H]1CCCCCC)OC(=O)[C@H](CC(C)C)NC=O` [THL, Tetrahydrolipstatin], the “minimum inhibitory concentration (MIC)” value with Mtb strain H37Rv is listed as ~ 15 μM. For the same molecule, at Mtb Pks13-TE [2] (read-out: inhibition level of Pks13-TE), the inhibition at 100 µM fell in the range of 50 to 60%. For the same molecule, the “retention of covalent coupling with THL, fold longer than Rv3802” value at Mtb Pks13-TE [3] (Pks13-TE versus Rv3802) is reported as “at least 10 fold”. Moreover, the “slowing of the rate of inactivation of Pks13-TE by presence of trehalose” value on Mtb Pks13-TE [3] (THL inhibition with versus without trehalose) is given as 48 ± 6.7%. For the same molecule, on Mtb Pks13-TE [3] (setting [8]), the inhibition at 12.5 µM came to 62.3 ± 5%, the inhibition at 25 µM was found to be 61.8 ± 3.5% and the inhibition at 50 µM is 44.1 ± 3.5%. For the same molecule, at Mtb Pks13-TE [3] (setting [9]), the inhibition at 12.5 µM came out at 15.2 ± 1.4%, the inhibition at 25 µM is 11.6 ± 0.4% and the inhibition at 50 µM is 16 ± 2.1%. For the same molecule, the “inhibition level of Rv3802” value against Mtb Rv3802 [4] is given as “completely inhibit”. Moreover, at Mtb Ag85C [5], the kinact/KI is 70 M⁻¹ s⁻¹. In addition, the IC50 entry with Rv3802 is “low micromolar”. Also, the Ki on Rv3802 (read-out: apparent KI) was 5 nM. The molecule also came in with an EC50 at Mtb Rv3802 [6] of 16.2 ± 0.8 nM. Further, on Mtb Ag85C [7] (read-out: inhibition level of Ag85C), the inhibition at 100 µM turned out to be 31.8 ± 5.9%.
`CCCCCCCCCCCC(CC1OC(=O)C1CCCCCC)OC(=O)C(CC(C)C)NC=O` (single isomer, unassigned; ent1) [ent1-THL]: the “inhibition level of Rv3802” value against Mtb Rv3802 [4] (100 µM) was 85.1 ± 1.4%. Also, the EC50 at Mtb Rv3802 [6] (setting [10]) stood at 15900 ± 1000 nM.
Consider `CCCCCCCCCCC[C@H](C[C@@H]1OC(=O)[C@H]1CCCCCC)OC(=O)[C@H](CC(C)C)NC=O` [5-epi-THL], for which the “inhibition level of Rv3802” value against Mtb Rv3802 [4] is “completely inhibit”. Besides, the EC50 on Mtb Rv3802 [6] (setting [10]) turned out to be 12.6 ± 1.2 nM. The “inhibition level of Ag85C” value at Mtb Ag85C [7] is on record as 12.3 ± 2.6%.
With `CCCCCCCCCCC[C@@H](C[C@@H]1OC(=O)[C@H]1CCCCCC)OC(=O)[C@@H](CC(C)C)NC=O` [2′-epi-THL], at Mtb Rv3802 [4], the “inhibition level of Rv3802” value is listed as “completely inhibit”. Also, on Mtb Ag85C [5] (Ag85C), the “fold lower binding affinity (KI) compared to THL” value was ~ 4.5 fold and the “fold lower kinact/KI value compared to THL” value is ~ 4 fold. The kinact/KI at Mtb Ag85C [5] (Ag85C, inhibitor 300 to 12.5 μM, 40 min progress curves) is reported as 1.1 ± 0.3 × 10^−3 μM^−1 min^−1. Also, at Mtb Rv3802 [6] (setting [10]), the EC50 was 9.2 ± 0.5 nM. In addition, the “inhibition level of Ag85C” value against Mtb Ag85C [7] is 35.8 ± 2.2%.
`CCCCCCCCCCC[C@H](C[C@H]1OC(=O)[C@@H]1CCCCCC)OC(=O)[C@H](CC(C)C)NC=O` (single isomer, unassigned; ent2) [ent2-THL]: the Pks13-TE activity remaining on Mtb Pks13-TE [2] (100 μM inhibitor, 1 h preincubation, compared to uninhibited reactions) is ~ 30%. In addition, on Mtb Rv3802 [4], the “inhibition level of Rv3802” value was found to be 83.9 ± 0.6%. In addition, a half-maximal effect at Mtb Rv3802 [6] (setting [10]) (EC50) was put at 15900 ± 1100 nM.
Take `CCCCCCCCCCC[C@H](C[C@@H]1OC(=O)[C@H]1CCCCCC)OC(=O)[C@@H](CC(C)C)NC=O` [2′,5-epi-THL]: the “inhibition level of Rv3802” value against Mtb Rv3802 [4] is reported as “completely inhibit”. In addition, the response on Mtb Rv3802 [6] (setting [10]) was half-maximal at 28.7 ± 3.1 nM (EC50).
For the molecule `CCCCCCCCCCCC(CC1OC(=O)C1CCCCCC)OC(=O)C(CC(C)C)NC=O` (single isomer, unassigned; ent3) [ent3-THL], at Mtb Rv3802 [4] (100 µM), the “inhibition level of Rv3802” value came to 83.0 ± 2.9%. The EC50 at Mtb Rv3802 [6] (setting [10]) was 16600 ± 900 nM.
Take `CCCCCCCCCCCC(CC1OC(=O)C1CCCCCC)OC(=O)C(CC(C)C)NC=O` (single isomer, unassigned; ent4) [ent4-THL]: the “inhibition level of Rv3802” value against Mtb Rv3802 [4] (100 µM) is listed as 79.0 ± 1.7%. The same molecule came in with an EC50 on Mtb Rv3802 [6] (setting [10]) of 62100 ± 4100 nM.
